Data reported in PubChem BioAssay (NCI).
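Each compound was tested at five concentrations against cells in 96-well plates for 48 hours. Abbreviation: GI50, concentration required for 50% inhibition of growth. Definition used: TGI = concentration required for complete inhibition of growth.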

Experiments:
Experiment in all cases: inhibition of tumour cell growth, NCI panel, 48 h
EKVX NSCLC = tested on: EKVX NSCLC
HCC-2998 colon = tested on: HCC-2998 colon
OVCAR-5 ovarian = tested on: OVCAR-5 ovarian
RPMI-8226 leukemia = tested on: RPMI-8226 leukemia
RXF 393 renal = tested on: RXF 393 renal
SK-MEL-28 melanoma = tested on: SK-MEL-28 melanoma
SNB-19 CNS = tested on: SNB-19 CNS
TK-10 renal = tested on: TK-10 renal
UACC-62 melanoma = tested on: UACC-62 melanoma
UO-31 renal = tested on: UO-31 renal

| SMILES | GI50 (EKVX NSCLC) | TGI (EKVX NSCLC) | GI50 (HCC-2998 colon) | TGI (HCC-2998 colon) | GI50 (OVCAR-5 ovarian) | TGI (OVCAR-5 ovarian) | GI50 (RPMI-8226 leukemia) | TGI (RPMI-8226 leukemia) | GI50 (RXF 393 renal) | TGI (RXF 393 renal) | GI50 (SK-MEL-28 melanoma) | TGI (SK-MEL-28 melanoma) | GI50 (SNB-19 CNS) | TGI (SNB-19 CNS) | GI50 (TK-10 renal) | TGI (TK-10 renal) | GI50 (UACC-62 melanoma) | TGI (UACC-62 melanoma) | GI50 (UO-31 renal) | TGI (UO-31 renal) |
| --- | --- | --- | --- | --- | --- | --- | --- | --- | --- | --- | --- | --- | --- | --- | --- | --- | --- | --- | --- | --- |
| O=c1oc2ccc(F)cc2c(=O)n1-c1ccc(F)cc1F | 2.54 µM | 9.79 µM | 3.9 µM | 27.7 µM | 3.46 µM | > 100 µM | 2.22 µM | 7.09 µM | 2.52 µM | 6.99 µM | 2.79 µM | 11.7 µM | 3.5 µM | > 100 µM | 5.07 µM | 36.9 µM | 2.02 µM | 7.52 µM | 1.93 µM | 6.56 µM |
| O=NN(Cc1ccc(Cl)cc1)C(C(=O)O)c1ccccc1 (centres undefined) |  | > 100 µM |  | > 100 µM |  | > 100 µM |  | > 100 µM |  | > 100 µM |  | > 100 µM |  | > 100 µM |  | > 100 µM |  | > 100 µM |  | > 100 µM |
| N#CC(C(=N/O)/C(=N/O)C(C#N)c1ccc(Cl)cc1)c1ccc(Cl)cc1 (centres undefined) |  | > 100 µM |  | > 100 µM |  | > 100 µM |  | > 100 µM |  | 98.7 µM |  | > 100 µM |  | > 100 µM |  | > 100 µM |  | > 100 µM |  | > 100 µM |
| CCCCNC1=C(C(=O)OCC)C(=O)CO1 |  | > 100 µM |  | > 100 µM |  | > 100 µM |  | > 100 µM |  | > 100 µM |  | > 100 µM |  | > 100 µM |  | > 100 µM |  | > 100 µM |  | > 100 µM |
| Cc1cc2c(cc1C)[n+](=O)c(C(=O)CC(=O)C(=O)Nc1c(C(C)C)cccc1C(C)C)c(C)n2[O-] |  | > 100 µM |  | > 100 µM |  | > 100 µM |  | > 100 µM |  | > 100 µM |  | > 100 µM |  | > 100 µM |  | > 100 µM |  | > 100 µM |  | > 100 µM |
| COc1cccc(/C=N/NC(=O)c2ccccc2Nc2ccnc(C(F)(F)F)c2)c1O | 0.517 µM | > 100 µM | 0.29 µM | 33.5 µM | 0.701 µM | 98.3 µM | 0.156 µM | 0.983 µM | 0.728 µM | 28 µM | 1.48 µM | > 34.7 µM | 2.41 µM | > 100 µM | 0.392 µM | > 92.6 µM | 0.378 µM | 10.6 µM | 0.303 µM |  |
| CC1OC(n2cc(F)c(=O)[nH]c2=O)CCC1O (centres undefined) |  | > 100 µM |  | > 100 µM |  | > 100 µM |  | > 100 µM |  | > 100 µM |  | > 100 µM |  | > 100 µM |  | > 100 µM |  | > 100 µM |  | > 100 µM |
| O=C(CN1CCOCC1)Nc1ccc(Cn2nnc3c2C(=O)c2nnn(Cc4ccc(NC(=O)CN5CCOCC5)cc4)c2C3=O)cc1 | 1.38 µM | 2.98 µM | 0.348 µM | 1.34 µM | 1.94 µM | 4.29 µM | 0.365 µM | 2.24 µM | 1.34 µM | 2.92 µM | 0.696 µM | 2.62 µM | 0.41 µM | 1.57 µM | 3.25 µM | 24.4 µM | 0.463 µM | 1.83 µM | 26 µM | > 100 µM |
| Cc1nc2cccc([N+](=O)[O-])c2c(NCCCN(C)C)c1C |  | > 31.6 µM |  | > 54.3 µM |  | 60.2 µM |  | > 100 µM |  | > 100 µM |  | > 100 µM |  | > 100 µM |  | > 55.1 µM |  | > 100 µM |  | > 100 µM |
| COc1ccc(C2=NN(C(=O)c3cc(OC)c(OC)c(OC)c3)C(c3ccc(C#N)cc3)C2)cc1OC (centres undefined) | 4.59 µM | > 100 µM | 2.16 µM | 6.63 µM | 5.24 µM | > 100 µM | 3.54 µM | > 100 µM | 0.541 µM | 4.69 µM | 1.3 µM | > 55 µM | 3.02 µM | > 68.2 µM | 3.65 µM | > 45 µM | 0.737 µM | > 53.1 µM | 0.439 µM | 17.4 µM |
| CC1OC(O[C@H]2C[C@@H](O)[C@]3(CO)[C@H]4[C@H](O)C[C@]5(C)[C@@H](C6=CC(=O)OC6)CC[C@]5(O)[C@@H]4CC[C@]3(O)C2)C(O)C(O)C1O (some centres undefined) | 16.5 µM | 30.5 µM | 20.2 µM | 36.6 µM | 35.7 µM | > 100 µM | 26.5 µM | 54.5 µM | 27.5 µM | 75.6 µM | 21.7 µM | 46.3 µM | 18.3 µM | 33.6 µM | 16.2 µM | 30 µM | 17.6 µM | 32.4 µM | 24.7 µM | 57.1 µM |
| COc1ccccc1C1C(C(=O)Nc2ccccc2)=C(C)NC(C)=C1C(=O)Nc1ccccc1 |  | > 100 µM |  | > 100 µM |  | > 100 µM |  | > 100 µM |  | > 100 µM |  | > 100 µM |  | > 100 µM |  | > 100 µM |  | > 100 µM |  | > 100 µM |
| Cc1nn(CN2CCN(C)CC2)c(=S)n1/N=C/c1cccc2ccccc12 | 31.8 µM | > 100 µM | 20.9 µM | 39 µM | 19.6 µM | 40.4 µM | 17.4 µM | 39.9 µM | 18.2 µM | 34.1 µM | 17 µM | 34.3 µM | 20.3 µM | 51.6 µM | 20.5 µM | 50.1 µM | 17.5 µM | 33.9 µM | 22 µM | 54.4 µM |
| Cc1c(C(=O)N/N=C/c2ccc(Cl)cc2)nnn1-c1ccnc2c(C(F)(F)F)cccc12 | 25.3 µM | > 100 µM | 9.54 µM | 53.1 µM | 15.6 µM | 36.9 µM | 4.2 µM | 31.1 µM | 3.06 µM | 11.2 µM | 14.4 µM | 38.5 µM | 12.1 µM | 30.2 µM | 2.6 µM | 8.93 µM | 10.6 µM | 28.4 µM | 13 µM | 27.8 µM |
| CC(=O)Nc1ccccc1Sc1ccccc1 |  | > 100 µM |  | > 100 µM |  | > 100 µM |  | > 100 µM |  | > 100 µM |  | > 100 µM |  | > 100 µM |  | > 100 µM |  | > 100 µM |  | > 100 µM |
| C[C@]12CC[C@H](O)CC1=CC[C@@H]1[C@@H]2CC[C@]2(C)C(c3cccnc3)=CC[C@@H]12 | 6.08 µM | > 100 µM | > 100 µM | > 100 µM | > 100 µM | > 100 µM | 5.1 µM | > 100 µM | 3.32 µM | 19 µM | 61.3 µM | > 100 µM | 26.8 µM | > 100 µM | > 100 µM | > 100 µM | 37.4 µM | > 100 µM | > 100 µM | > 100 µM |
